Read-outs that look alike come from different tables or passages of the source.

Here are results for 2 compounds from US20210290553A1, “HC-1119 FORMULATION, PREPARATION METHOD AND USE THEREOF” (HINOVA PHARMACEUTICALS INC., priority 2018, published 2021).

The conditions of data set [1]: 160 mg QD 49 days, cited from earlier work.
A short description of data set [2]: Permeability evaluated by Caco-2 cell model. It is filed as in vitro ADME. Particulars: human; 10 μM HC-1119, Caco-2 cell model; read-out: apparent permeability coefficient. From the text: (§1) Therefore, HC-1119 is an insoluble drug with high permeability, and belongs to the second category of BSC classification, and thus it is extremely important to improve the bioavailability thereof.
(Caco-2 cells form a polarised layer with tight junctions and transporters.)

Data set [3] can be described thus: Physical and chemical properties: solubility in water. It is filed as physicochemical.
Excerpt: as §1

Data set [4] in a line: Clinical pharmacokinetic test of HC-1119 soft capsule. It is filed as in vivo. The note with it: human, plasma, oral, HC-1119 80 mg, day 84. As for the experimental part:
(1) Dosage: 80 mg/day (2 soft capsules of 40 mg)
(2) Administration way: continuous administration, once a day, the first administration being orally taken with empty stomach, thereafter no restriction on diet.
In the pharmacokinetic study, 9 subjects participated in this study.
The drug was taken by the subjects with empty stomach on the first day of the test, and 0˜0.5 h before taking the drug as well as 0.5 h, 0.75 h, 1 h, 2 h (±5 min), 4 h, 8 h, 12 h (±15 min), 24 h (±30 min) before administration on the second day), blood samples were collected, and 3 mL venous blood was drawn at each time point, then placed in an anticoagulant tube (the type of anticoagulant was determined according to the established analytical method).
0˜0.5 h before administration on day 7, 21, 35, 42, 56, 70, and 84 of continuous dosing, as well as 0.5 h, 0.75 h, 1 h, 2 h (±5 min), 4 h, 8 h, 12 h (±15 min), 24 h (±30 min, before administration on day 85) after administration on day 84, 3 mL venous blood was collected at each time point and placed in an anticoagulant tube (the type of anticoagulant was determined according to the established analytical method).
The sample should be centrifuged as soon as possible (about 3000 rpm, 10 min) to separate the plasma. The separated plasma samples need to be stored in two parts in a plasma cryotube. […]

For `CNC(=O)c1ccc(N2C(=S)N(c3ccc(C#N)c(C(F)(F)F)c3)C(=O)C2(C)C)cc1F` [Enzalutamide, enzalutamide], in data set [1] (Median), the “AUCtau” value is 295.6 µg·h/mL, the apparent clearance CL/F was 0.541 L/h, the highest concentration (Cmax) was 15550 ng/mL and the “Cmin” value is 11450 ng/mL. Also, in data set [1] (Median), the “tmax” value is 61.2 min. Also, in data set [1] (Min-Max), the “AUCtau” value is 240 to 593 µg·h/mL, the “Cmax” value is 11800 to 28000 ng/mL, the “Cmin” value was 6920 to 22400 ng/mL and the “tmax” value is 31.2 to 181 min. Also, in data set [1] (mean values), the “AUCtau” value is 321.5 µg·h/mL, the “CL/F” value is on record as 0.520 L/h, the “Cmax” value was 16590 ng/mL and the “Cmin” value is 12000 ng/mL. Further, in data set [1] (mean values, listed as enzalutamide), the “Cmin” value is 12000 ng/mL.
Regarding `[2H]C([2H])([2H])NC(=O)c1ccc(N2C(=S)N(c3ccc(C#N)c(C(F)(F)F)c3)C(=O)C2(C)C)cc1F` [HC-1119, 4-{3-[4-cyano-3-(trifluoromethyl)phenyl]-5,5-dimethyl-4-oxo-2-thio-1-imidazolidinyl}-2-fluoro-N-trideuteromethylbenzamide], in data set [2], the Papp at 10 μM lay in the range of 11.4 to 13.6 ×10⁻⁶ cm/s. In addition, the solubility in water entry in data set [3] is listed as “difficult to dissolve in water”. The area under the curve (AUC) at 84 day in data set [4] (read-out: steady-state AUC on day 84) was determined as 480 µg·h/mL. Besides, in data set [4] (read-out: steady-state Ctrough on day 84), the concentration at 84 day was determined as 18900 ng/mL.

As usually defined, the CL/F is the apparent clearance, not corrected for the fraction that reaches the circulation. One may read the Cmax as the highest concentration seen after dosing. The term AUC denotes concentration integrated over time.
